In patent US20070190539A1, “Human MLR single nucleotide polymorphisms associated with dose-dependent congestive heart failure and methods of use thereof” (Bristol-Myers Squibb Company, priority 2005, published 2007):

Assay: Phase II clinical trials CV168-006 and CV168-008: diagnosis of congestive heart failure in patients treated with compound A
Assay type: in vivo, human
Method: Genomic DNA samples from patients enrolled in two Bristol-Myers Squibb Company Phase II clinical trials CV168-006 and CV168-008 trials were genotyped for 1 SNP identified in the human mineralocorticoid receptor gene (see Example 1) and evaluated for association with congestive heart failure.
498 subjects enrolled in the CV168-006 trial and 232 subjects from the CV168-008 trial were analyzed in this study. All analyses were based on data collected up to 24 weeks, which was the duration of the short-term phase of the trials. DNA was extracted from frozen blood by a third-party (Genaissance Inc, North Carolina) using a salting-out method (Gentra Systems). All subjects gave written informed consent.
At the time of this analysis four individuals were diagnosed as having developed congestive heart failure. All four were in the CV168-006 trial; three were being treated with 10 mg of compound A and one with 20 mg of compound A. All SNPs that were analyzed above were also tested for association with CHF using contingency tables.
Sample. Investigators in the BMS clinical trials diagnosed dose-dependent congestive heart failure in some subjects.
Genomic DNA samples from patients enrolled in two Bristol-Myers Squibb Company Phase II clinical trials CV168-006 and CV168-008 trials were genotyped for 1 SNP identified in the human PPAR-gamma gene (see Example 7) and evaluated for association with congestive heart failure.
At the time of this analysis four individuals were diagnosed as having developed congestive heart failure. All four were in the CV 168-006 trial; three were being treated with 10 mg of compound A and one with 20 mg of compound A. All SNPs that were analyzed above were also tested for association with CHF using contingency tables.
Genomic DNA samples from patients enrolled in two Bristol-Myers Squibb Company Phase II clinical trials CV168-006 and CV168-008 trials were genotyped for 1 SNP identified in the human Adiponectin gene (see Example 13) and evaluated for association with congestive heart failure.

COc1ccc(OC(=O)N(CC(=O)O)Cc2ccc(OCCc3nc(-c4ccccc4)oc3C)cc2)cc1 [compound A, N-[(4-methoxyphenoxy)carbonyl]-N-[[4-[2-(5-methyl-2-phenyl-4-oxazolyl)ethoxy]phenyl]methyl]glycine]
individuals who developed congestive heart failure while treated with 10 mg (CV168-006 trial, 10 mg of compound A, data up to 24 weeks): three | individuals who developed congestive heart failure while treated with 20 mg (CV168-006 trial, 20 mg of compound A, data up to 24 weeks): one | dose dependence of congestive heart failure (CHF) (Phase II trials, patients, high doses = 10 and 20 mg arms): observed only at high doses | individuals diagnosed as having developed congestive heart failure (all subjects analysed (498 in CV168-006, 232 in CV168-008), data up to 24 weeks, all four cases in the CV168-006 trial): four
